Assay results: patent US8808749B2, “Polymer conjugate of bioactive substance having hydroxy group” (priority 2009, dated 2014)

Columns and labels:
heart muscle = test: Effect of combretastatin A4 conjugate on heart muscle (plasma CPK); type: in vivo, mouse; settings: for creatinine phosphokinase (CPK) in plasma, average: 200 mg/kg once into tail vein
Text: Combretastatins are known to have a side effect of causing a myocardial damage. As such, by following a change in efficacy of creatinine phosphokinase (CPK) that is released into blood when enzymes abundantly present in heart muscles or neurons are damaged, the degree of side effect of the compounds according to the invention was compared to those of known compounds.
To a non-treated female CDF1 mouse, Compound 22 as a compound of the invention and CA4P, PEG-Glu-CA4, and PEG-Asp-CA4 as a comparative compound were each administered once into the mouse tail vein. Six hours and 24 hours after the administration, three animals per each group were anesthetized with ether and blood was taken from abdominal aorta. Creatinine phosphokinase (CPK) contained in plasma was measured.

[1] = tested on: Mouse colon cancer, Colon 26; test: Antitumor activity test for combretastatin A4 conjugate; type: in vivo; settings: for relative tumor volume based on non-treatment group: 200 mg/kg in terms of combretastatin A4, once into tail vein
Text: Mouse colon cancer, Colon 26, maintained by serial subcutaneous subculture in mice, was minced into about 2-mm cubic fragments, and the fragments were subcutaneously transplanted on the dorsal part of female CDF1 mice with a trocar. Eight days after the tumor transplantation, the polymer conjugate according to the invention (Compound 22) or a control drug (combretastatin A4 phosphate ester; CA4P, PEG-Glu-CA4 or PEG-Asp-CA4) was each administered once into the mouse tail vein in a way such that each mouse received the same dose per body weight in terms of combretastatin A4. Each compound was dissolved in a 5% aqueous glucose solution and used.
After the administration, the major axis (L mm) and the minor axis (W mm) of the tumor were measured using a caliper, and the tumor volume was calculated by the formula (L×W^2)/2.

[2] = tested on: Mouse colon cancer, Colon 26; test: Antitumor activity test for docetaxel conjugate; type: in vivo; settings: 100 mg/kg in terms of docetaxel, once into tail vein
Text: Mouse colon cancer, Colon 26, maintained by serial subcutaneous subculture in mice, was minced into about 2-mm cubic fragments, and the fragments were subcutaneously transplanted on the dorsal part of female CDF1 mice with a trocar. Eight days after the tumor transplantation, the polymer conjugate according to the invention (Compound 30) or a control drug (docetaxel; DTX or PEG-Asp-DTX) was each administered once into the mouse tail vein in a way such that each mouse received the same dose per body weight in terms of docetaxel. Docetaxel was dissolved in anhydrous ethanol and cremophor (manufactured by Sigma Corporation), and diluted with physiological saline at the time of use. Other compounds were dissolved in a 5% aqueous glucose solution for injection and used. After the administration, the major axis (L mm) and the minor axis (W mm) of the tumor were measured using a caliper, and the tumor volume was calculated by the formula (L×W^2)/2.

| Compound | creatinine phosphokinase (CPK) in plasma, average (heart muscle; 6 hours after administration) | creatinine phosphokinase (CPK) in plasma, average (heart muscle; 24 hours after administration) | CPK change (in words) (heart muscle; dose of 200 mg/kg) | relative tumor volume based on non-treatment group ([1]; day 0 after administration) | relative tumor volume based on non-treatment group ([1]; day 2 after administration) | relative tumor volume based on non-treatment group ([1]; day 4 after administration) | relative tumor volume based on non-treatment group ([1]; day 6 after administration) | relative tumor volume based on non-treatment group ([1]; day 8 after administration) | antitumor activity (in words) ([1]; dose of 200 mg/kg) | relative tumor volume based on non-treatment group ([2]; day 0 after administration) | relative tumor volume based on non-treatment group ([2]; day 3 after administration) | relative tumor volume based on non-treatment group ([2]; day 5 after administration) | relative tumor volume based on non-treatment group ([2]; day 9 after administration) | relative tumor volume based on non-treatment group ([2]; day 12 after administration) |
| --- | --- | --- | --- | --- | --- | --- | --- | --- | --- | --- | --- | --- | --- | --- |
| COc1ccc(/C=C\c2cc(OC)c(OC)c(OC)c2)cc1OP(=O)(O)O [CA4P, combretastatin A4 phosphate ester] | 400-500 IU/L | ≦200 IU/L | CPK increase was significant | 1.00 | 0.72 | 0.82 | 0.80 | 0.80 | weak antitumor activity |  |  |  |  |  |
| docetaxel [DTX] |  |  |  |  |  |  |  |  |  | 1.00 | 0.50 | 0.32 | 0.37 | 0.35 |
